{"source": "paper PMC6090075", "about": "(Acta Pharmaceutica Sinica. B, 2017)", "biological_target": "low-density lipoprotein receptor (LDLR)-related protein 6 (LRP6) (Homo sapiens, UniProt O75581)", "sequence (O75581 20-1613)": "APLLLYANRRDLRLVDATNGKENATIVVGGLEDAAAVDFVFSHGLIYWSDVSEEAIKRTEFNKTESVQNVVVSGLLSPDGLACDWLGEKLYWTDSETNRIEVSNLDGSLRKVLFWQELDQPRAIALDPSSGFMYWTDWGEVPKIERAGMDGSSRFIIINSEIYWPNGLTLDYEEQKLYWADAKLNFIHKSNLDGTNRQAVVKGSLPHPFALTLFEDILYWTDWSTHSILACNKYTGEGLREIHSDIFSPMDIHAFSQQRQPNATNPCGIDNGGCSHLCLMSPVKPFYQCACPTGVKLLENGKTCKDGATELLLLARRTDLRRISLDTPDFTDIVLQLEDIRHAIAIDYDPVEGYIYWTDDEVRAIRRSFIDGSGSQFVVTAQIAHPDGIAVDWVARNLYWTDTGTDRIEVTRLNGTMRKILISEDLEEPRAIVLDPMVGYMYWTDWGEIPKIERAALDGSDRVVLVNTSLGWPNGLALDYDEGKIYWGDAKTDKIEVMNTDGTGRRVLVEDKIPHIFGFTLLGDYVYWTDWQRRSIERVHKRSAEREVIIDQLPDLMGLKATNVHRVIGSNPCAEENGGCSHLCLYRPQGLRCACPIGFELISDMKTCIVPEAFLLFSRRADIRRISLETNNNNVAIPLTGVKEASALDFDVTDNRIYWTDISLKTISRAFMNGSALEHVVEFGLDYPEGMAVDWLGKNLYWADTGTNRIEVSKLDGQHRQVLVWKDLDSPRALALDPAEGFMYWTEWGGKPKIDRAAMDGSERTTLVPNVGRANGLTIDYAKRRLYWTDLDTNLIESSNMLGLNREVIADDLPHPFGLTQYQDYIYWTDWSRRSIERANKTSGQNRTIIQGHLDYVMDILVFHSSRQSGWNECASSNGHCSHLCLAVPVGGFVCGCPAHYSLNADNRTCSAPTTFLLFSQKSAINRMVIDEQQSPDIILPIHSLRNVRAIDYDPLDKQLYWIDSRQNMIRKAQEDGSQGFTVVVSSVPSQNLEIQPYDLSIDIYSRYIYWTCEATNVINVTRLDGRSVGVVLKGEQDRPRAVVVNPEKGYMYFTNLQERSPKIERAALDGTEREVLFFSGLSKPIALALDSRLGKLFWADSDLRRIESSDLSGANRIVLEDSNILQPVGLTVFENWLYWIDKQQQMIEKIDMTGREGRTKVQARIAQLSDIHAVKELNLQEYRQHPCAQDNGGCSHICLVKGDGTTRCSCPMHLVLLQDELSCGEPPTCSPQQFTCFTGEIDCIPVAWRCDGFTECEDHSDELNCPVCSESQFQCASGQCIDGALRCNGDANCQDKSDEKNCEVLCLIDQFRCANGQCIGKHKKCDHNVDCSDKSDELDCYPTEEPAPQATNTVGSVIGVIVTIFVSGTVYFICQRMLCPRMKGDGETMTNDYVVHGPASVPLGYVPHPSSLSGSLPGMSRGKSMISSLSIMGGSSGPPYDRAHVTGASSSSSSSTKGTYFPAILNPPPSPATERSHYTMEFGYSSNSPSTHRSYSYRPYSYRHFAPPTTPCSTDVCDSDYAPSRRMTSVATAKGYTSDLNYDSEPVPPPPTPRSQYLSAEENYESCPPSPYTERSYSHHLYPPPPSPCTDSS", "experiment": "SPR on immobilized recombinant LRP6", "type": "binding"}
{"smiles": "C=CCSSC[C@H](N)C(=O)O", "note": "[SAMC, S-allylmercaptocysteine]", "values": [{"measurement": "Kd", "value": 5.65, "unit": "µM"}]}
